Test results from patent US20070129439A1, “COMPOSITIONS CONTAINING SUBSTITUTED QUINOLINES AND SUBSTITUTED DIPHENYL SULFONES AND METHODS OF USE” (priority 2003, published 2007).

Tested on: neurons
Experiment: % neuron loss for test agents in a rat model with Alzheimer's disease (FIG. 1)
Assay type: in vivo
Conditions: rat model with AD
Source text: FIG. 1 is a plot of % neuron loss for several test agents in a rat model with Alzheimer's disease (AD).

| SMILES | % neuron loss (killing effect) (dapsone alone at 2 mg/kg) | % neuron loss (killing effect) (hydroxychloroquine alone at 6.5 mg/kg) |
| --- | --- | --- |
| Nc1ccc(S(=O)(=O)c2ccc(N)cc2)cc1 [dapsone, 4,4′-diaminodiphenylsulfone] | suppression of the in vitro killing effect |  |
| CCN(CCO)CCCC(C)Nc1ccnc2cc(Cl)ccc12 (centres unmarked) [hydroxychloroquine] |  | suppression of the in vitro killing effect |
